Laboratory results from patent US8815577B2, “Assay electrode having immobilized lipid/protein layers, methods of making the same and methods of using the same for luminescence test measurements” (Meso Scale Technologies, LLC, priority 2001, dated 2014).

Columns and labels:
EGFR in A431 cells [1] = assay: Measurement of EGFR activation dependent binding events (prophetic); assay type: cell-based; details: membrane fragments of EGF-activated A431 cells
Description: Activation of the EGFR leads to autophosphorylation of EGFR followed by the sequential binding of shc to EGFR and grb-2 to shc. The cells are lysed as described in Example 1.2 to form cell membrane fragments (and, preferably, purified by centrifugation). The cell membrane fragments are immobilized on carbon electrodes integrated into the multi-well plates by passive adsorption (as described in Example 1.3) or specific binding to a capture reagent immobilized on the electrode (e.g., wheat germ agglutinin, anti-EGFR, or another antibody specific for a membrane component, preferably, an epitope found on the cytoplasmic side). The immobilized membrane fragments are treated with a buffered solution containing an STAG-labeled antibody directed against shc or grb-1. In an alternate protocol, the membranes and antibody are premixed prior to addition of the membranes to the wells. A buffered tripropylamine solution is introduced into the well and ECL is induced and measured as described in Example 1.4.

EGFR in A431 cells [2] = assay: Measuring of EGFR activation dependent phosphorylation (prophetic); assay type: cell-based; details: membrane fragments of EGF-activated A431 cells
Description: Activation of EGFR leads to its autophosphorylation. The cells are lysed as described in Example 1.2 to form cell membrane fragments (and, preferably, purified by centrifugation). The cell membrane fragments are immobilized on carbon electrodes integrated into the multi-well plates by passive adsorption or specific binding to a capture reagent previously immobilized on the electrode (e.g., wheat germ agglutinin, anti-EGFR, or another antibody specific for a membrane component, preferably, an epitope found on the cytoplasmic side) (as described in Example 1.3). The immobilized membrane fragments are treated with a buffered solution containing a STAG-labeled anti-phosphotyrosine antibody. In an alternate protocol, the membranes and antibody are premixed prior to addition of the membranes to the wells. A buffered tripropylamine solution is introduced to the well and ECL is induced and measured as described in Example 1.4.

[3] = tested on: tyrosine phosphatase activity / phosphotyrosine content in U2-OS cells; assay: Cellular phosphotyrosine content in fixed U2-OS cells grown on carbon electrode, ECL detection (tyrosine phosphatase inhibition); assay type: cell-based; details: 1 mM, 30 minute incubation
Description: U2-OS cells were grown in non-plasma treated Multi-Array plates using the growth conditions recommended by the American Type Culture Collection (ATCC reference number HTB-96). The plates were partially sterilized beforehand by illumination with a high energy UV light (Strata Linker Model 2400, Stratagene) set to deliver 9999 joules to the plate surface over the course of 5 minutes. Approximately 10,000 trypsinized cells were dispensed to each well of the 96 well plate in 100 μl of tissue culture media (see ATCC reference above) and incubated overnight in a cell culture incubator (at 37° C. in a humidified atmosphere containing 5% CO2) to promote attachment of the cells to the electrode surface.
Per-Vanadate, a tyrosine phosphatase inhibitor was added to a some of the wells to give a final concentration of 1 mM in those wells. […]
Phosphotyrosine containing proteins were detected by incubating the wells for one hour in 90 μl of PBS/FBS containing an anti-phosphotyrosine monoclonal antibody (100 ng/mL) and an anti-mouse secondary antibody (200 ng/mL) that was labeled with ruthenium-tris-bipyridine (ORI-TAG NHS Ester, IGEN International). […] ECL Assay Buffer was added (150 μl of OriGlo Plus, IGEN International) and the plate was analyzed using a Sector HTS instrument.

[4] = molecular target: melanocortin 5 receptor (MC5) (Homo sapiens, UniProt P33032); details: at the higher concentrations
melanocortin 5 receptor (MC5), sequence (P33032 whole entry): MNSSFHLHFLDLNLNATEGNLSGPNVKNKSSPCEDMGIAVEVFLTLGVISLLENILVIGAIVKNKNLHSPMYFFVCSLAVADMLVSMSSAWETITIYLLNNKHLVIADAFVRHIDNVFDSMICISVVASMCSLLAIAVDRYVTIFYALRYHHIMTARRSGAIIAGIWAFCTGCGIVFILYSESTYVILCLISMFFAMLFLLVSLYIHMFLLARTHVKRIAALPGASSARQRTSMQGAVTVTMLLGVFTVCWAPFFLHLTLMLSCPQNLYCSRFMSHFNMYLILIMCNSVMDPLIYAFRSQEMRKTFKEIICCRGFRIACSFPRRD
Description: The membrane fragments came from HEK-293 cells that were transformed to express MC5.
Pure PHA-E was passively adsorbed onto the working electrode of plasma-treated Multi-Array 384-well plates by dispensing PHA-E (10 pmol per well) in PBS (5 μL per well) into the wells of the plate. Plates were sealed and incubated for 1 h at ambient temperature. Following the incubation, 3% BSA blocking solution was added (65 μL per well) and the plates were sealed and incubated for 1 h at room temperature. Plates were washed 4 times with PBS and dried. MC5 containing membrane fragments were immobilized in the plates using the procedure described in Example 2.3.1 except that in this case the immobilization occurred via lectin-sugar interactions.
In this Example, MC5 containing membrane fragments were immobilized on the electrode surface of plasma treated Multi-Array 96 well plates (Meso Scale Discovery) by capture on a passively adsorbed layer of pure Pokeweed Mitogen according to an immobilization protocol analogous to that described in the Example 2.3.2. […] The fluid in the wells was then removed and 150 μL of a buffered detergent-free solution of tripropylamine (MSD Assay Buffer T, surfactant free, Meso Scale Discovery) was added. ECL from the wells was measured using a Sector HTS plate reader.

EGF: epidermal growth factor, ligand of EGFR (NSDSECPLSHDGYCLHDGVCMYIEALDKYACNCVVGYIGERCQYRDLKWWELR; not fully specified; Epidermal growth factor; UniProt P01133 971-1023, looked up)
ECL signal (STAG-labeled antibody against shc or grb-1) versus control A431 cells not exposed to EGF (EGFR in A431 cells [1]): greater | ECL signal (STAG-labeled anti-phosphotyrosine antibody) versus control A431 cells not exposed to EGF (EGFR in A431 cells [2]): greater

Per-vanadate
ECL signal after subtraction of background, relative to untreated cells [3]: more than three times higher | Average ECL signal (anti-phosphotyrosine antibody) ([3]; n=4): 7690.0

[Nle4,D-Phe7]-α-melanocyte-stimulating hormone [NDP-α-MSH]
inhibition of the binding of NDP-α-MSH-TAG to MC5 [4]: almost complete
